This is an account of results in patent US6380387B1, “4-Pyrimidinyl-n-acyl-l phenylalanines” (Hoffmann-La Roche Inc., priority 1999, dated 2002).

A word on the IC50: it is the point on the concentration scale where inhibition reaches its midpoint.

The assay deals with T1, VLA-4 (α4β1 integrin) (Homo sapiens, UniProt P05556+P13612).
T1 construct: Ramos cells bearing cell-surface VLA-4; endogenous in cells; host or cells: Ramos cells
T1 sequence (P13612 34-1032): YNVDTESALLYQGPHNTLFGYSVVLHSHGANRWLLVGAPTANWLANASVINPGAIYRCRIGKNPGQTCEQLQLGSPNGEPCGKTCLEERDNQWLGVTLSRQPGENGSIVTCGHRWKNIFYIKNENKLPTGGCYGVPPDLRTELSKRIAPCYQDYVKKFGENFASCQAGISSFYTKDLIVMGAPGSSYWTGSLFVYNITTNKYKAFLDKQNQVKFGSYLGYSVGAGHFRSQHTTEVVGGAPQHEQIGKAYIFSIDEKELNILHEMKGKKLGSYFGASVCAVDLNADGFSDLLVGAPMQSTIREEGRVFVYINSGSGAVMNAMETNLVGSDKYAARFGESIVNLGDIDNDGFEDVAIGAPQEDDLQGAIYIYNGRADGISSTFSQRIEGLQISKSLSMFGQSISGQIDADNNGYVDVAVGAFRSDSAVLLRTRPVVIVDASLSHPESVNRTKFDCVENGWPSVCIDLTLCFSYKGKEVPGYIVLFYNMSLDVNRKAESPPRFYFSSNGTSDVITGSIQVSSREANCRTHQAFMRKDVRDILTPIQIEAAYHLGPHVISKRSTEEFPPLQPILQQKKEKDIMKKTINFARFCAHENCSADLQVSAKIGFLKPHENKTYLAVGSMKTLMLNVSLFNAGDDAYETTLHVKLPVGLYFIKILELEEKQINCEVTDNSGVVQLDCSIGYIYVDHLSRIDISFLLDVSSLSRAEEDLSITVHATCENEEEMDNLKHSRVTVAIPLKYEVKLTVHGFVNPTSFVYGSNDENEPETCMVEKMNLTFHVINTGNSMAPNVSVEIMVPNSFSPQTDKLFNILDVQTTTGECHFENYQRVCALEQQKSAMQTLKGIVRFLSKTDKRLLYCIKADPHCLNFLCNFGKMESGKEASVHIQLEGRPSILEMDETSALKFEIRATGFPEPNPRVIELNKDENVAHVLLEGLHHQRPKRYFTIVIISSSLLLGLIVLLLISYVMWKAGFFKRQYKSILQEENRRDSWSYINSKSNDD
T1 sequence (P05556 21-798): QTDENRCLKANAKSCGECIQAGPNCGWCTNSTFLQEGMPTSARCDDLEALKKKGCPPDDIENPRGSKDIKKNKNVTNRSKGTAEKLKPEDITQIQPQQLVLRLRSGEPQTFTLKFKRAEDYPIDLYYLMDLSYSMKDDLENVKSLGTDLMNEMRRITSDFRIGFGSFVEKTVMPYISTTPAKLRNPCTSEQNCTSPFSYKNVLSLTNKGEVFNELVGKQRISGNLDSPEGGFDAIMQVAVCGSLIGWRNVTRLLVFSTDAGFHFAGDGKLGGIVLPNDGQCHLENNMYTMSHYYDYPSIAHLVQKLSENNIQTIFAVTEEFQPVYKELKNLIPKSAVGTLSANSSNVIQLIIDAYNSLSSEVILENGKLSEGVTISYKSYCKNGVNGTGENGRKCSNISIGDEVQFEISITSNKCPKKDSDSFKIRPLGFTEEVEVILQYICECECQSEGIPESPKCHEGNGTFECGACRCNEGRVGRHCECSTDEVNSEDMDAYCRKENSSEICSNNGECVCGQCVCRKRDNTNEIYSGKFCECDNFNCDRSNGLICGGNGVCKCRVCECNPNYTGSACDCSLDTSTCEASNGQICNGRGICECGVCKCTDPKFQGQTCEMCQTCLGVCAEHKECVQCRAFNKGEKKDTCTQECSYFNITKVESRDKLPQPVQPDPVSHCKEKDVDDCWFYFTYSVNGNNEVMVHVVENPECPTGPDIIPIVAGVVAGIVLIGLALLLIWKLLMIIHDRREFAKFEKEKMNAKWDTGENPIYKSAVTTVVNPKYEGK
Kind of assay: Ramos (VLA-4)/VCAM-1 Cell-Based Screening Assay (cell adhesion). Conditions: Calcein-AM labeled Ramos cells adhering to immobilized recombinant human VCAM-1. As for the experimental part:
Ramos (VLA-4)/VCAM-1 Cell-Based Screening Assay Protocol
Soluble recombinant human VCAM-1 (mixture of 5- and 7-Ig domain) was purified from CHO cell culture media by inmmunoaffinity chromatography and maintained in a solution containing 0.1 M Tris-glycine (pH 7.5), 0.1 M NaCl, 5 mM EDTA, 1 mM PMSF, […] NaN3 and 10 μg/mL leupeptin. Calcein-AM was purchased from Molecular Probes Inc.
VLA-4 (α4β1 integrin) antagonist activity, defined as ability to compete with cell-surface VLA-4 for binding to immobilized VCAM-1, was quantitated using a Ramos-VCAM-1 cell adhesion assay. Ramos cells bearing cell-surface VLA-4, were labeled with a fluorescent dye (Calcein-AM) and allowed to bind VCAM-1 in the presence or absence of test compounds. A reduction in fluorescence intensity associated with adherent cells (% inhibition) reflected competitive inhibition of VLA-4 mediated cell adhesion by the test compound.
Initially, this entailed coating 96 well plates (Nunc Maxisorp) with recombinant human VCAM-1 (100 ng in 100 μl PBS), sealing each plate and allowing the plates to stand at 4° C. for ≈18 hr. The VCAM-coated plates were subsequently washed twice with 0.05% Tween-20 in PBS, and then blocked for 1 hr (room temperature) with 200 μl of Blocking Buffer (1% BSA/0.02% thimerosal) to reduce non-specific binding. Following the incubation with Blocking Buffer, plates were inverted, blotted and the remaining buffer aspirated. Each plate was then washed with 300 μl PBS, inverted and the remaining PBS aspirated.
Test compounds were dissolved in 100% DMSO and then diluted 1:25 in VCAM Cell Adhesion Assay Buffer (4 mM CaCl2, 4 mM MgCl2 in 50 mM TRIS-HCl, pH 7.5) (final DMSO=4%). A series of eight 1:4 dilutions were performed for each compound (general concentration range of 1 nM-12,500 nM). 100 μl/well of each dilution was added to the VCAM-coated plates, followed by 100 μl of Ramos cells (200,000 cells/well in 1% BSA/PBS). Plates containing test compounds and Ramos cells were allowed to incubate for 45 min at room temperature, after which 165 μl/well PBS was added. Plates were inverted to remove non-adherent cells, blotted and 300 μl/well PBS added. Plates were again inverted, blotted and the remaining buffer gently aspirated. 100 μl Lysis Buffer (0.1% SDS in 50 mM TRIS-HCl, pH 8.5) was added to each well and agitated for 2 min on a rotary shaking platform. The plates were then read for fluorescence intensity on a Cytofluor 2300 (Millipore) fluorecence measurement system (excitation=485 nm, emission=530 nm). The results are shown in the following Table II, where (A=IC50<100 nM, B=IC50<10000 nM): […]
Consider `Cc1c(-c2ccc(C[C@H](NC(=O)c3c(Cl)cccc3Cl)C(=O)O)cc2)c(=O)n(C)c(=O)n1C` [Example 6, N-[(2,6-dichlorophenyl)carbonyl]-4-(1,3,6-trimethyl-2,4-dioxo-5-pyrimidinyl)-L-phenylalanine], for which the IC50 was < 100 nM.

Regarding `COCCC1(C(=O)N[C@@H](Cc2ccc(-c3c(C)n(C)c(=O)n(C)c3=O)cc2)C(=O)O)CCCC1` [Example 7, N-[[1-(2-methoxyethyl)cyclopentyl]carbonyl]-4-(1,3,6-trimethyl-2,4-dioxo-5-pyrimidinyl)-L-phenylalanine], the IC50 was < 100 nM.

Take `Cc1cccc(Br)c1C(=O)N[C@@H](Cc1ccc(-c2c(C)n(C)c(=O)n(C)c2=O)cc1)C(=O)O` [Example 8, N-[(2-bromo-6-methylphenyl)carbonyl]-4-(1,3,6-trimethyl-2,4-dioxo-5-pyrimidinyl)-L-phenylalanine]: the IC50 is < 100 nM.

As for `Cc1cccc(Cl)c1C(=O)N[C@@H](Cc1ccc(-c2c(C)n(C)c(=O)n(C)c2=O)cc1)C(=O)O` [Example 9, N-[(2-chloro-6-methylphenyl)carbonyl]-4-(1,3,6-trimethyl-2,4-dioxo-5-pyrimidinyl)-L-phenylalanine], the half-maximal inhibitory concentration (IC50) is < 100 nM.

Turning to `CCc1cccc(C)c1C(=O)N[C@@H](Cc1ccc(-c2c(C)n(C)c(=O)n(C)c2=O)cc1)C(=O)O` [Example 10, N-[(2-ethyl-6-methylphenyl)carbonyl]-4-(1,3,6-trimethyl-2,4-dioxo-5-pyrimidinyl)-L-phenylalanine], the IC50 was < 100 nM.

For `Cc1cccc(C(C)C)c1C(=O)N[C@@H](Cc1ccc(-c2c(C)n(C)c(=O)n(C)c2=O)cc1)C(=O)O` [Example 11, N-[[2-(2-methylethyl)-6-methylphenyl]carbonyl]-4-(1,3,6-trimethyl-2,4-dioxo-5-pyrimidinyl)-L-phenylalanine], the IC50 is < 100 nM.

Turning to `Cc1c(-c2ccc(C[C@H](NC(=O)c3c(F)cccc3F)C(=O)O)cc2)c(=O)n(C)c(=O)n1C` [Example 12, N-[(2,6-difluorophenyl)carbonyl]-4-(1,3,6-trimethyl-2,4-dioxo-5-pyrimidinyl)-L-phenylalanine], the IC50 is < 100 nM.

With `Cc1c(-c2ccc(C[C@H](NC(=O)c3c(F)cccc3C(F)(F)F)C(=O)O)cc2)c(=O)n(C)c(=O)n1C` [Example 13, N-[(2-fluoro-6-(trifluoromethyl)phenyl)carbonyl]-4-(1,3,6-trimethyl-2,4-dioxo-5-pyrimidinyl)-L-phenylalanine], the IC50 is < 100 nM.

As to `Cc1c(-c2ccc(C[C@H](NC(=O)c3c(C(C)C)cccc3C(C)C)C(=O)O)cc2)c(=O)n(C)c(=O)n1C` [Example 14, N-[[2,6-di-(2-methylethyl)phenyl]carbonyl]-4-(1,3,6-trimethyl-2,4-dioxo-5-pyrimidinyl)-L-phenylalanine], the IC50 is < 10000 nM.

With `CCc1cccc(Cl)c1C(=O)N[C@@H](Cc1ccc(-c2c(C)n(C)c(=O)n(C)c2=O)cc1)C(=O)O` [Example 15, N-[(2-chloro-6-ethylphenyl)carbonyl]-4-(1,3,6-trimethyl-2,4-dioxo-5-pyrimidinyl)-L-phenylalanine], the IC50 is < 100 nM.

For `CCCc1cccc(Cl)c1C(=O)N[C@@H](Cc1ccc(-c2c(C)n(C)c(=O)n(C)c2=O)cc1)C(=O)O` [Example 16, N-[(2-chloro-6-propylphenyl)carbonyl]-4-(1,3,6-trimethyl-2,4-dioxo-5-pyrimidinyl)-L-phenylalanine], the half-maximal inhibitory concentration (IC50) is < 100 nM.

Turning to `CCn1c(C)c(-c2ccc(C[C@H](NC(=O)c3c(Cl)cccc3Cl)C(=O)O)cc2)c(=O)n(CC)c1=O` [Example 18, N-[(2,6-dichlorophenyl)carbonyl]-4-(1,3-diethyl-6-methyl-2,4-dioxo-5-pyrimidinyl)-L-phenylalanine], the IC50 is < 100 nM.

In the case of `CCn1c(C)c(-c2ccc(C[C@H](NC(=O)c3c(C)cccc3Cl)C(=O)O)cc2)c(=O)n(CC)c1=O` [Example 19, N-[(2-chloro-6-methylphenyl)carbonyl]-4-(1,3-diethyl-6-methyl-2,4-dioxo-5-pyrimidinyl)-L-phenylalanine], the IC50 is < 100 nM.

For the compound `CCn1c(C)c(-c2ccc(C[C@H](NC(=O)C3(CCOC)CCCC3)C(=O)O)cc2)c(=O)n(CC)c1=O` [Example 20, 4-(1,3-diethyl-6-methyl-2,4-dioxo-5-pyrimidinyl)-N-[[1-(2-methoxyethyl)cyclopentyl]carbonyl]-L-phenylalanine], the IC50 was < 100 nM.

In the case of `Cn1c(C(F)(F)F)c(-c2ccc(C[C@H](NC(=O)c3c(Cl)cccc3Cl)C(=O)O)cc2)c(=O)n(C)c1=O` [Example 21, N-[1-(2,6-dichlorophenyl)carbonyl]-4-(1,3-dimethyl-2,4-dioxo-6-(trifluoromethyl)-5-pyrimidinyl)-L-phenylalanine], the IC50 was < 100 nM.

Take `Cc1cccc(Cl)c1C(=O)N[C@@H](Cc1ccc(-c2c(C(F)(F)F)n(C)c(=O)n(C)c2=O)cc1)C(=O)O` [Example 22, N-[(2-chloro-6-methylphenyl)carbonyl]-4-[1,3-dimethyl-2,4-dioxo-6-(trifluoromethyl)-5-pyrimidinyl]-L-phenylalanine]: the IC50 was < 100 nM.

As for `Cn1c(C(F)(F)F)c(-c2ccc(C[C@H](NC(=O)c3c(F)cccc3C(F)(F)F)C(=O)O)cc2)c(=O)n(C)c1=O` [Example 23, N-[[2-fluoro-6-(trifluoromethyl)phenyl]carbonyl]-4-(1,3-dimethyl-2,4-dioxo-6-(trifluoromethyl)-5-pyrimidinyl)-L-phenylalanine], the IC50 was < 100 nM.

In the case of `Cc1cc(C[C@H](NC(=O)c2c(C)cccc2Cl)C(=O)O)ccc1-c1cn(C)c(=O)n(C)c1=O` [Example 24, N-[(2-chloro-6-methylphenyl)carbonyl]-4-(1,3-dimethyl-2,4-dioxo-5-pyrimidinyl)-3-methyl-L-phenylalanine], the half-maximal inhibitory concentration (IC50) was < 10000 nM.

Turning to `Cc1cc(C[C@H](NC(=O)c2c(Cl)cccc2Cl)C(=O)O)ccc1-c1cn(C)c(=O)n(C)c1=O` [Example 25, N-[(2,6-dichlorophenyl)carbonyl]-4-(1,3-dimethyl-2,4-dioxo-5-pyrimidinyl)-3-methyl-L-phenylalanine], the IC50 was < 100 nM.

Turning to `Cc1cc(C[C@H](NC(=O)c2c(Cl)cccc2Cl)C(=O)O)ccc1-c1c(C)n(C)c(=O)n(C)c1=O` [Example 26, N-[(2,6-dichlorophenyl)carbonyl]-4-(1,3,6-trimethyl-2,4-dioxo-5-pyrimidinyl)-3-methyl-L-phenylalanine], the IC50 was < 10000 nM.

In the case of `CCOC(=O)[C@H](Cc1ccc(-c2c(C)n(C)c(=O)n(C)c2=O)cc1)NC(=O)c1c(Cl)cccc1Cl` [Example 27, N-[(2,6-dichlorophenyl)carbonyl]-4-(1,3,6-trimethyl-2,4-dioxo-5-pyrimidinyl)-L-phenylalanine ethyl ester], the IC50 is < 10000 nM.
